Measured values taken from patent publication US7598258B2, “Quinoline derivatives and quinazoline derivatives inhibiting autophosphorylation of macrophage colony stimulating factor receptor” (Kirin Beer Kabushiki Kaisha, priority 2002, dated 2009).
pIC50: −log10 of the molar value.

Target: T1, Human KDR (Homo sapiens, UniProt P35968)
T1 construct: expressed in transfected cells; host or cells: NIH3T3 cells (mouse fibroblasts)
Assay: Inhibition of KDR phosphorylation in human KDR-transfected NIH3T3 cells (ELISA)
Type: cell-based
Conditions: for Selection ratio (KDR phosphorylation IC50 / c-fms phosphorylation IC50): class 0-3; for pIC50: human KDR-transfected NIH3T3 cells, VEGF 100 ng/ml, ELISA, read-out: KDR phosphorylation 50% inhibitory concentration (IC50)
Protocol: Human KDR-transfected NIH3T3 cells (Sawano A et al., Cell Growth & Differentiation, 7, 213-221 (1996)) were cultured in a DMEM medium containing 10% fetal calf serum (purchased from GIBCO BRL) within a 5% carbon dioxide incubator until 50 to 70% confluent. The harvested cells were seeded into wells, containing the same medium, in a collagen type 1 coat 96-well flat-bottom plate in an amount of 1.5×10^4 per well, and cultured at 37° C. overnight. The medium was replaced with a 0.1% fetal calf serum-containing DMEM medium. The test compound dissolved in dimethyl sulfoxide was added to each well, and the cultivation was continued at 37° C. for additional one hr. A human recombinant vascular endothelial growth factor (hereinafter abbreviated to “VEGF”) was added to a final concentration of 100 ng/ml, followed by stimulation of cells at 37° C. for 2 min. The medium was removed, and the cells were washed with phosphate buffered saline (pH 7.4). A solubilization buffer (50 μl) (20 mM HEPES (pH 7.4), 150 mM NaCl, 0.2% Triton X-100, 10% glycerol, 5 mM sodium orthovanadylate, 5 mM disodium ethylenediaminetetraacetate, and 2 mM Na4P2O7) was then added thereto. The mixture was shaken at 4° C. for 2 hr to prepare a cell extract.
Separately, phosphate buffered saline (50 μl, pH 7.4) containing 5 μg/ml of anti-phospho-tyrosine antibody (PY20; purchased from Transduction Laboratories) was added to a microplate for ELISA (Maxisorp; purchased from NUNC), followed by standing at 4° C. overnight to be immobilized on the wells. After washing of the plate, 300 μl of a blocking solution was added, followed by standing at room temperature for 2 hr to perform blocking. After washing, the whole cell extract was transferred and was allowed to stand at 4° C. overnight. After washing, an anti-KDR antibody (purchased from Santa Cruz Biotechnology) was allowed to react at room temperature for one hr. Further, after washing, a peroxidase-labeled anti-rabbit Ig antibody (purchased from Amersham) was allowed to react at room temperature for one hr. After washing, a chromophoric substrate for peroxidase (purchased from Sumitomo Bakelite Co., Ltd.) was added thereto to initiate a reaction. After a suitable level of color development, a reaction termination solution was added to stop the reaction, and the absorbance at 450 nm was measured with a microplate reader. The KDR phosphorylation activity for each well was determined by presuming the absorbance without the addition of the test compound and with the addition of VEGF to be 100% KDR phosphorylation activity and the absorbance without the addition of the test compound and VEGF to be 0% KDR phosphorylation activity. The concentration of the test compound was varied on several levels, the KDR phosphorylation inhibitory rate was determined for each case, and the concentration of the test compound necessary for inhibiting 50% of KDR phosphorylation (IC50) was calculated.

T1 sequence (P35968 20-1356): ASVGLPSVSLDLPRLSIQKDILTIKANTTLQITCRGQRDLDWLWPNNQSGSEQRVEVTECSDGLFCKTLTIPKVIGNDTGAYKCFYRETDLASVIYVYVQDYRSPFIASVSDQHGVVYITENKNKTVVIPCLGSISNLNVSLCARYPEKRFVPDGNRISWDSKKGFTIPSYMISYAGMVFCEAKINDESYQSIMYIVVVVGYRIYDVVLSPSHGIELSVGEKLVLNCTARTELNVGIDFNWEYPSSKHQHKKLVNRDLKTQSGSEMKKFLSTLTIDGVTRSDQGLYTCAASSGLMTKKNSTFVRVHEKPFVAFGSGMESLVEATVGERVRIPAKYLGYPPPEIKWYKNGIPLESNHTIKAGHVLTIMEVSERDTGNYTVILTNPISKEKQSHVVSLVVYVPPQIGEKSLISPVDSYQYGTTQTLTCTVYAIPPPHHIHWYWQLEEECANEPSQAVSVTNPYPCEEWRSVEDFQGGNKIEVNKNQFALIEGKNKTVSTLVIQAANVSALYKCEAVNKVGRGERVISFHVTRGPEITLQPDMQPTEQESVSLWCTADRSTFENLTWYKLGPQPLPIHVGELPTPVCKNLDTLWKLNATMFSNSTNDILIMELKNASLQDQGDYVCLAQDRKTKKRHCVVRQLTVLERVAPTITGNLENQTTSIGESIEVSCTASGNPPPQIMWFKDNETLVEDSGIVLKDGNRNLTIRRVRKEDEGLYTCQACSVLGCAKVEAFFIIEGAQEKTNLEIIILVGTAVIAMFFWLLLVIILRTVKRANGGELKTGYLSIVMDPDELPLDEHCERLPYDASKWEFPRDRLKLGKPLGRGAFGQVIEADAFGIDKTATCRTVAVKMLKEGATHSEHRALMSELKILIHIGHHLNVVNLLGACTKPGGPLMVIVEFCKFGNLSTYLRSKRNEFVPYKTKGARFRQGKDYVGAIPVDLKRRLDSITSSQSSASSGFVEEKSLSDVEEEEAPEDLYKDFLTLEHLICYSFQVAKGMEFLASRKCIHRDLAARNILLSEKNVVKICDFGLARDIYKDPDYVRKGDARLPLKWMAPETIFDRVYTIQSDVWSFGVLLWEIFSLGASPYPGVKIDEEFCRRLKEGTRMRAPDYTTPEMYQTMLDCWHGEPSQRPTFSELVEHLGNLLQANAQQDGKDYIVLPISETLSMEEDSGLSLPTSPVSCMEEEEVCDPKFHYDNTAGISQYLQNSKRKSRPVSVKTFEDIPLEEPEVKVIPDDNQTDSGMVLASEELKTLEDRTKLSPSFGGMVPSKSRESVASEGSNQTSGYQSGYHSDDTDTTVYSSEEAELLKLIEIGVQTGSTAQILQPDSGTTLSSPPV

## COc1cc2nccc(Oc3ccc(NC(=O)NC(C)c4ccc(F)cc4)cc3)c2cc1OC (stereo not shown) [Example 1, N-{4-[(6,7-Dimethoxy-4-quinolyl)oxy]phenyl}-N′-[1-(4-fluorophenyl)ethyl]urea]
  Selection ratio (KDR phosphorylation IC50 / c-fms phosphorylation IC50): 0 (KDR phosphorylation 50% inhibitory concentration [μM]/c-fms phosphorylation 50% inhibitory concentration [μM] was less than 5)
  pIC50: 8.96

## COc1cc2nccc(Oc3ccc(NC(=O)NC(C)c4ccc(F)cc4)c(Cl)c3)c2cc1OC (stereo not shown) [Example 4, N-{2-Chloro-4-[(6,7-dimethoxy-4-quinolyl)oxy]phenyl}-N′-[1-(4-fluorophenyl)ethyl]urea]
  Selection ratio (KDR phosphorylation IC50 / c-fms phosphorylation IC50): 0 (KDR phosphorylation 50% inhibitory concentration [μM]/c-fms phosphorylation 50% inhibitory concentration [μM] was less than 5)
  pIC50: 9.00

## COc1cc2nccc(Oc3ccc(NC(=O)N[C@@H](C)c4ccc(F)cc4)c(Cl)c3)c2cc1OC [Example 5, N-{2-Chloro-4-[(6,7-dimethoxy-4-quinolyl)oxy]phenyl}-N′-[(1S)-1-(4-fluorophenyl)ethyl]urea]
  Selection ratio (KDR phosphorylation IC50 / c-fms phosphorylation IC50): 1 (when the value was 5 or more)
  pIC50: 7.67

## COc1cc2nccc(Oc3ccc(NC(=O)N[C@H](C)c4ccc(F)cc4)c(Cl)c3)c2cc1OC [Example 6, N-{2-Chloro-4-[(6,7-dimethoxy-4-quinolyl)oxy]phenyl}-N′-[(1R)-1-(4-fluorophenyl)ethyl]urea]
  Selection ratio (KDR phosphorylation IC50 / c-fms phosphorylation IC50): 0 (KDR phosphorylation 50% inhibitory concentration [μM]/c-fms phosphorylation 50% inhibitory concentration [μM] was less than 5)
  pIC50: 8.74

## COc1cc2nccc(Oc3cc(C)c(NC(=O)NC(C)c4ccc(F)cc4)cc3C)c2cc1OC (stereo not shown) [Example 7, N-{4-[(6,7-Dimethoxy-4-quinolyl)oxy]-2,5-dimethylphenyl}-N′-[1-(4-fluorophenyl)ethyl]urea]
  Selection ratio (KDR phosphorylation IC50 / c-fms phosphorylation IC50): 0 (KDR phosphorylation 50% inhibitory concentration [μM]/c-fms phosphorylation 50% inhibitory concentration [μM] was less than 5)
  pIC50: 8.51

## COc1cc2nccc(Oc3cc(C)c(NC(=O)N[C@@H](C)c4ccc(F)cc4)cc3C)c2cc1OC [Example 8, N-{4-[(6,7-Dimethoxy-4-quinolyl)oxy]-2,5-dimethylphenyl}-N′-[(1S)-1-(4-fluorophenyl)ethyl]urea]
  Selection ratio (KDR phosphorylation IC50 / c-fms phosphorylation IC50): 2 (when the value was 10 or more)
  pIC50: 6.41

## COc1cc2nccc(Oc3cc(C)c(NC(=O)N[C@H](C)c4ccc(F)cc4)cc3C)c2cc1OC [Example 9, N-{4-[(6,7-Dimethoxy-4-quinolyl)oxy]-2,5-dimethylphenyl}-N′-[(1R)-1-(4-fluorophenyl)ethyl]urea]
  Selection ratio (KDR phosphorylation IC50 / c-fms phosphorylation IC50): 0 (KDR phosphorylation 50% inhibitory concentration [μM]/c-fms phosphorylation 50% inhibitory concentration [μM] was less than 5)
  pIC50: 8.57

## COc1cc2nccc(Oc3ccc(NC(=O)NC(C)c4ccc(F)cc4)cc3Cl)c2cc1OC (stereo not shown) [Example 10, N-{3-Chloro-4-[(6,7-dimethoxy-4-quinolyl)oxy]phenyl}-N′-[1-(4-fluorophenyl)ethyl]urea]
  Selection ratio (KDR phosphorylation IC50 / c-fms phosphorylation IC50): 0 (KDR phosphorylation 50% inhibitory concentration [μM]/c-fms phosphorylation 50% inhibitory concentration [μM] was less than 5)
  pIC50: 8.52

## COc1cc2nccc(Oc3ccc(NC(=O)N[C@@H](C)c4ccc(F)cc4)cc3Cl)c2cc1OC [Example 11, N-{3-Chloro-4-[(6,7-dimethoxy-4-quinolyl)oxy]phenyl}-N′-[(1S)-1-(4-fluorophenyl)ethyl]urea]
  Selection ratio (KDR phosphorylation IC50 / c-fms phosphorylation IC50): 2 (when the value was 10 or more)
  pIC50: 6.91

## COc1cc2nccc(Oc3ccc(NC(=O)N[C@H](C)c4ccc(F)cc4)cc3Cl)c2cc1OC [Example 12, N-{3-Chloro-4-[(6,7-dimethoxy-4-quinolyl)oxy]phenyl}-N′-[(1R)-1-(4-fluorophenyl)ethyl]urea]
  Selection ratio (KDR phosphorylation IC50 / c-fms phosphorylation IC50): 0 (KDR phosphorylation 50% inhibitory concentration [μM]/c-fms phosphorylation 50% inhibitory concentration [μM] was less than 5)
  pIC50: 8.55

## COc1cc2nccc(Oc3ccc(NC(=O)NC(C)c4ccc(F)cc4)c(C)c3)c2cc1OC (stereo not shown) [Example 13, N-{4-[(6,7-Dimethoxy-4-quinolyl)oxy]-2-methylphenyl}-N′-[1-(4-fluorophenyl)ethyl]urea]
  Selection ratio (KDR phosphorylation IC50 / c-fms phosphorylation IC50): 0 (KDR phosphorylation 50% inhibitory concentration [μM]/c-fms phosphorylation 50% inhibitory concentration [μM] was less than 5)
  pIC50: > 9.00

## COc1cc2nccc(Oc3ccc(NC(=O)N[C@@H](C)c4ccc(F)cc4)c(C)c3)c2cc1OC [Example 14, N-{4-[(6,7-Dimethoxy-4-quinolyl)oxy]-2-methylphenyl}-N′-[(1S)-1-(4-fluorophenyl)ethyl]urea]
  Selection ratio (KDR phosphorylation IC50 / c-fms phosphorylation IC50): 1 (when the value was 5 or more)
  pIC50: 7.16

## COc1cc2nccc(Oc3ccc(NC(=O)N[C@H](C)c4ccc(F)cc4)c(C)c3)c2cc1OC [Example 15, N-{4-[(6,7-Dimethoxy-4-quinolyl)oxy]-2-methylphenyl}-N′-[(1R)-1-(4-fluorophenyl)ethyl]urea]
  Selection ratio (KDR phosphorylation IC50 / c-fms phosphorylation IC50): 0 (KDR phosphorylation 50% inhibitory concentration [μM]/c-fms phosphorylation 50% inhibitory concentration [μM] was less than 5)
  pIC50: > 9.00

## COc1cc(Oc2ccnc3cc(OC)c(OC)cc23)ccc1NC(=O)NC(C)c1ccc(F)cc1 (stereo not shown) [Example 16, N-{4-[(6,7-Dimethoxy-4-quinolyl)oxy]-2-methoxyphenyl}-N′-[1-(4-fluorophenyl)ethyl]urea]
  Selection ratio (KDR phosphorylation IC50 / c-fms phosphorylation IC50): 0 (KDR phosphorylation 50% inhibitory concentration [μM]/c-fms phosphorylation 50% inhibitory concentration [μM] was less than 5)
  pIC50: 8.51

## COc1cc(Oc2ccnc3cc(OC)c(OC)cc23)ccc1NC(=O)N[C@@H](C)c1ccc(F)cc1 [Example 17, N-{4-[(6,7-Dimethoxy-4-quinolyl)oxy]-2-methoxyphenyl}-N′-[(1S)-1-(4-fluorophenyl)ethyl]urea]
  Selection ratio (KDR phosphorylation IC50 / c-fms phosphorylation IC50): 3 (when the value was 50 or more)
  pIC50: 6.50
In vitro
  selective inhibition of c-fms rather than KDR (in words): selectively inhibit c-fms rather than KDR

## COc1cc(Oc2ccnc3cc(OC)c(OC)cc23)ccc1NC(=O)N[C@H](C)c1ccc(F)cc1 [Example 18, N-{4-[(6,7-Dimethoxy-4-quinolyl)oxy]-2-methoxyphenyl}-N′-[(1R)-1-(4-fluorophenyl)ethyl]urea]
  Selection ratio (KDR phosphorylation IC50 / c-fms phosphorylation IC50): 0 (KDR phosphorylation 50% inhibitory concentration [μM]/c-fms phosphorylation 50% inhibitory concentration [μM] was less than 5)
  pIC50: 8.74

## COc1cc2nccc(Oc3ccc(NC(=O)NC(C)c4ccc(F)cc4)c(C(F)(F)F)c3)c2cc1OC (stereo not shown) [Example 19, N-[4-[(6,7-Dimethoxy-4-quinolyl)oxy]-2-(trifluoromethyl)phenyl]-N′-[1-(4-fluorophenyl)ethyl]urea]
  Selection ratio (KDR phosphorylation IC50 / c-fms phosphorylation IC50): 0 (KDR phosphorylation 50% inhibitory concentration [μM]/c-fms phosphorylation 50% inhibitory concentration [μM] was less than 5)
  pIC50: 8.82

## COc1cc2nccc(Oc3ccc(NC(=O)N[C@@H](C)c4ccc(F)cc4)c(C(F)(F)F)c3)c2cc1OC [Example 20, N-[4-[(6,7-Dimethoxy-4-quinolyl)oxy]-2-(trifluoromethyl)phenyl]-N′-[(1S)-1-(4-fluorophenyl)ethyl]urea]
  Selection ratio (KDR phosphorylation IC50 / c-fms phosphorylation IC50): 2 (when the value was 10 or more)
  pIC50: 6.84
